# Results published in patent US12103925B2, “Crystal and amorphous form of tolebrutinib, preparation method therefor, and use thereof” (HANGZHOU SOLIPHARMA CO., LTD., priority 2021, dated 2024).
# “And” between values parts separate entries of the source, which are not always exact repeats. Equal entries are not always repeated. “Also recorded” adds a separate entry of the source.
# Legend:
# Assay type in all cases: physicochemical
# [1] = Stability study under long-term and accelerated conditions (XRPD and HPLC); settings: for Purity after placing / sample after placing / chemical purity before and after storage: 10 months; for Purity after placing: HPLC; for sample after placing: XRPD; for time the solid form remains unchanged / stable: both long-term (25° C./60% RH/open) and accelerated (40° C./75% RH/open) conditions; for chemical purity before and after storage: long-term and accelerated conditions
# Experimental: In this application, X-ray powder diffraction (XRPD) data were collected using a BrukerD8 Advance diffractometer; parameters are as follows: Cu radiation; wavelength: 1.54 Å; Current voltage: 40 KV, 40 mA; Scan range: 3˜40′2θ.
# (§1) In this application, the HPLC parameters for chemical stability and solubility are as follows:
# […] Regular testing using XRPD and HPLC was performed.
# (§2) […] Regular testing using XRPD and HPLC were performed.
# as §2
# [2] = Stability under light and oxidation conditions; settings: for time the form remains stable under light: light (25° C./4500 lx/closed); for chemical purity before and after storage: light and oxidation conditions, 14 days; for time the form remains stable under oxidation: oxidation (in an atmosphere of carbamide peroxide)
# [3] = Solubility study in pH 1.2 buffer solution and pH 1.2 SGF (HPLC); settings: for Solubility, pH 1.2 SGF: pH 1.2 SGF (with pepsin)
# Experimental: as §1
# The amorphous form of tolebrutinib, Form 1 and Form 2 samples of the present application were studied using pH 1.2 buffer solution (preparation: 375.90 mg potassium chloride solid and 1709.47 mg concentrated hydrochloric acid (37%) were added to a 100 mL volumetric flask, 80 mL of pure water was added, adjusted the pH to 1.2 with hydrochloric acid or potassium hydroxide, q.s. to volume) and pH 1.2 SGF (preparation: In 765 μL of concentrated hydrochloric acid (37%) added about 80 mL of water, 1 g of pepsin, 200 mg chlorinated sodium, shook, diluted with water to 100 mL) to form a supersaturated solution, and the dissolved content of the sample in the saturated solution was determined by high performance liquid chromatography (HPLC) at a fixed time point.
# [4] = Dynamic moisture adsorption analysis (DVS), hygroscopicity
# Experimental: In this application, dynamic moisture adsorption analysis (DVS) data and isothermal adsorption analysis data were obtained using a TA Instruments Q5000 TGA; parameters are as follows: temperature: 25° C.; relative humidity range: 0% RH-80% RH; dm/dt=0.001%/min; equilibration time: gas: N2; sample pan: platinum pan.
# [5] = Compressibility study (tablet compression, hardness, tensile strength); settings: for tensile strength: calculated, T=2H/πDL*9.8; for diameters / thicknesses: circular tablets, 7.5 mm punch; for diameters / thicknesses / hardness: mean main pressure 1.8 KN; for hardness: radial breaking force, tablet hardness tester
# Experimental: The tablet compression was conducted using a Tianxiang rotary tablet press. A circular punch with a diameter of 7.5 mm (07.5 mm) was selected, a filling depth of 17.9 mm and a mean main pressure of 1.8 KN was used to form circular tablets. The tablets' radial breaking force (hardness, H) was measured using a tablet hardness tester. The tablets' diameter (D) and thickness (L) were measured using a vernier caliper. The tensile strength (T) of the powder was calculated using the formula T=2H/πDL*9.8.
# [6] = Stability of the solid form in tablets at 25° C./60% RH (XRPD); settings: XRPD before and after storage
# Experimental: (§3) Following the formulation in Table 6, API, lactose hydrate, polyvinylpyrrolidone, hydroxypropyl cellulose, microcrystalline cellulose and magnesium stearate were mixed and compressed to obtain a tablet core. Subsequently, the tablet cores are coated with a solution/suspension for film coating, resulting in the preparation of the tablets.
# The prepared amorphous tablets, Form 1 tablets and Form 2 tablets were individually placed at 25° C./60% RH for 14 days. XRPD tests were performed before and after storage.
# [7] = Solid form before and after the tableting process (XRPD); settings: XRPD comparison
# Source text: as §3
# [8] = Polarized light microscope (PLM) particle size; settings: PLM image
# Experimental: In this application, the polarized light microscope (PLM) images were collected using a XPV˜990E polarized light microscope; a small amount of powder sample was placed on a glass slide, a small amount of mineral oil was added dropwise to disperse the sample, a cover glass was placed on the slide, and the sample was placed on the slide. Observing and taking pictures on the stage.
# [9] = Competitive slurry experiments
# [10] = listed as amorphous form of tolebrutinib
# [11] = listed as amorphous tolebrutinib
# [12] = pH 1.2 buffer and pH 1.2 SGF (medium simulating the physiological pH of the human stomach)
# [13] = pH 1.2 buffer solution, 2 hours
Purity after placing ([1]; 40° C./75% RH/open),sample after placing ([1]; 40° C./75% RH/open),"Solubility, pH 1.2 SGF ([3]; 2 hours) [mg/mL]",tensile strength [5] [MPa],diameters [5] [mm],thicknesses [5] [mm],hardness [5] [kg],solid form before and after the tableting process [7],Purity after placing ([1]; 25° C./60% RH/open) [%],sample after placing ([1]; 25° C./60% RH/open),time the solid form remains unchanged / stable [1] [months],time the form remains stable under light [2],chemical purity before and after storage [2],time the form remains stable under oxidation [2],"solubility, approximate level [3, 12]","Solubility, pH 1.2 buffer solution [3, 13] [mg/mL]",particle size [8] [μm],SMILES,further results
98.00%,Amorphous,36.76,1.4,7.49,4.15,7.18,remained unchanged,–,–,–,–,–,–,–,–,–,"C=CC(=O)N1CCC[C@@H](n2c(=O)n(-c3ccc(Oc4ccccc4)cc3)c3c(N)nccc32)C1 [Amorphous, tolebrutinib]","Purity after placing ([1]; 25° C./65% RH/open): 98.87%; sample after placing ([1]; 25° C./65% RH/open): Amorphous; Purity after placing ([1]; 40° C./75% RH/open, listed as amorphous form of tolebrutinib): 98.0%; time the solid form remains unchanged / stable [1, 10]: 10 months; time the solid form remains unchanged / stable [1, 11]: 10 months; chemical purity before and after storage [1, 10]: essentially unchanged; chemical purity before and after storage [1, 11]: essentially unchanged; time the form remains stable under light [2, 10]: 14 days; time the form remains stable under light [2, 11]: at least 14 days; chemical purity before and after storage [2, 10]: no essential change; chemical purity before and after storage [2, 11]: essentially unchanged; time the form remains stable under oxidation [2, 10]: 14 days; time the form remains stable under oxidation [2, 11]: at least 14 days; solubility compared with the crystal forms [3]: surpassing that of Tolebrutinib Form 1 and Form 2; solubility ([3]; pH 1.2 buffer solution and pH 1.2 SGF, pH 1.2, simulated gastric fluid, thermodynamic from solid, pH 1.2 buffer and pH 1.2 SGF (medium simulating the physiological pH of the human stomach), read-out: solubility, approximate level): ~20 mg/mL; solubility at 2 hours ([3]; pH 1.2 buffer solution, pH 1.2, simulated gastric fluid, thermodynamic from solid, 2 hours): 29.1 mg/mL; DVS weight gain ([4]; between 20% RH and 80% RH, 25° C., listed as amorphous form of tolebrutinib): about 1.9%; DVS weight gain ([4]; between 20% RH and 80% RH, 25° C., listed as sample 1-1): about 1.9%; time the solid form remains unchanged / stable in the formulation (tablets) [6, 10]: 14 days"
99.5% and 99.54%,Form 1,18.28,1.3,7.51,4.18,6.40,remained unchanged,99.77,Form 1,10,at least 14 days,basically unchanged,at least 14 days,approximately 20 mg/mL,21.19,≤ 10,"C=CC(=O)N1CCC[C@@H](n2c(=O)n(-c3ccc(Oc4ccccc4)cc3)c3c(N)nccc32)C1 [Form 1, tolebrutinib]","time the solid form remains unchanged / stable ([1]; listed as Tolebrutinib Form 1): at least 10 months; chemical purity before and after storage ([1]; listed as Tolebrutinib Form 1): basically unchanged; also recorded: essentially unchanged; solubility, approximate level ([3]; pH 1.2 buffer and pH 1.2 SGF (medium simulating the physiological pH of the human stomach), listed as Tolebrutinib Form 1): around 20 mg/mL; DVS weight gain ([4]; between 20% RH and 80% RH, 25° C., listed as sample 2-1): about 0.46%; time the solid form remains unchanged / stable in the formulation (tablets) ([6]; listed as Tolebrutinib Form 1): at least 14 days"
98.24%,Form 2,32.45,1.7,7.51,4.18,8.31,remained unchanged,98.87,Form 2,10,at least 14 days,basically unchanged,at least 14 days,approximately 20 mg/mL,21.44,≤ 10,"C=CC(=O)N1CCC[C@@H](n2c(=O)n(-c3ccc(Oc4ccccc4)cc3)c3c(N)nccc32)C1 [Form 2, tolebrutinib]","time the solid form remains unchanged / stable ([1]; listed as tolebrutinib Form 2): at least 10 months; chemical purity before and after storage ([1]; listed as Tolebrutinib Form 2): essentially unchanged; chemical purity before and after storage ([1]; listed as tolebrutinib Form 2): basically unchanged; DVS weight gain ([4]; between 0% RH and 80% RH, listed as Tolebrutinib Form 2): 0.3%; DVS weight gain ([4]; between 0% RH and 80% RH, listed as sample 3-1): about 0.34%; time the solid form remains unchanged / stable in the formulation (tablets) ([6]; listed as Tolebrutinib Form 2): at least 14 days; thermodynamic stability [9]: thermodynamically stable form at temperatures of 30 °C and above"
